According to the supplement of paper PMC4862054:
“And” between values parts separate entries of the source, which are not always exact repeats. Equal entries are not always repeated.

How the values were obtained:
BT-549 [1] = conditions: 72 h
Outline: (§1)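 Rows with a drug sensitivity score of zero were dropped, and EC50 was taken from the fitted percent-inhibition dose-response curve, censored at the highest concentration. Data were normalised on each plate to vehicle and a positive kill control and checked by Z'-factor. The assay seeded breast cancer cell lines in 20 µl onto 384-well plates pre-loaded with compound in 5 µl medium for 72 h, then added 2.5 µl CellTiter-Blue for 2 h at 37 °C and read fluorescence at 560/590 nm.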

CAL-120 [2] = conditions: 72 h
Outline: as §1

HCC1143 [3] = conditions: 72 h
Outline: as §1

HCC1599 [4] = conditions: 72 h
Outline: as §1

MDA-MB-436 [5] = conditions: 72 h
Outline: as §1

BT-474 = assay: normalised viability (% of control), CellTiter-Blue; higher = more viable cells (about 100 = DMSO control); conditions: incubation time: 72 h
Outline: (§2)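 The reported figure is normalised viability at a single listed concentration of the series. Breast cancer cell lines (20 µl suspension) went onto 384-well plates holding compound in 5 µl medium for 72 h. CellTiter-Blue (2.5 µl, 2 h, 37 °C) was read by fluorescence at 560/590 nm, and each plate was scaled to vehicle at 100 and a positive kill control at 0.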

BT-549 [6] = assay: as above; conditions: incubation time: 72 h
Outline: as §2

CAL-120 [7] = assay: as above; conditions: incubation time: 72 h
Outline: as §2

CAL-148 = assay: as above; conditions: incubation time: 72 h
Outline: as §2

CAL-51 = assay: as above; conditions: incubation time: 72 h
Outline: as §2

CAL-85-1 = assay: as above; conditions: incubation time: 72 h
Outline: as §2

DU-4475 = assay: as above; conditions: incubation time: 72 h
Outline: as §2

HCC1143 [8] = assay: as above; conditions: incubation time: 72 h
Outline: as §2

HCC1599 [9] = assay: as above; conditions: incubation time: 72 h
Outline: as §2

HCC1937 = assay: as above; conditions: incubation time: 72 h
Outline: as §2

HDQ-P1 = assay: as above; conditions: incubation time: 72 h
Outline: as §2

Hs578T = assay: as above; conditions: incubation time: 72 h
Outline: as §2

MDA-MB-231 = assay: as above; conditions: incubation time: 72 h
Outline: as §2

MDA-MB-436 [10] = assay: as above; conditions: incubation time: 72 h
Outline: as §2

MDA-MB-453 = assay: as above; conditions: incubation time: 72 h
Outline: as §2

MDA-MB-468 = assay: as above; conditions: incubation time: 72 h
Outline: as §2

MFM-223 [11] = assay: as above; conditions: incubation time: 72 h
Outline: as §2

SK-BR-3 = assay: as above; conditions: incubation time: 72 h
Outline: as §2

MFM-223 [12] = conditions: 72 h
Outline: as §1

CO[C@@H](C(=O)N1Cc2[nH]nc(NC(=O)c3ccc(N4CCN(C)CC4)cc3)c2C1)c1ccccc1 [Danusertib]
Conditions | EC50, CellTiter-Blue viability [nM]
BT-549 [1] | 1130
CAL-120 [2] | 335
HCC1143 [3] | 2290
HCC1599 [4] | 38.1
MDA-MB-436 [5] | 1480

normalised viability [%]
Conditions | 3 nM | 10 nM | 30 nM | 100 nM | 1000 nM | 10000 nM
BT-474 | – | 105 | – | – | 88.3 | 96.5
BT-549 [6] | – | 97.9 | – | – | 64.3 | 16.2
CAL-51 | 116 | – | 116 | 74.3 | – | –
CAL-85-1 | 85.8 | – | 82.8 | 76.2 | – | –
CAL-120 [7] | – | 80.7 | – | – | 46 | 8.24
CAL-148 | 92.5 | – | 85.5 | 29.7 | – | –
DU-4475 | 89.8 | – | 88.2 | 70.6 | – | –
HCC1143 [8] | – | 78.2 | – | – | 61.8 | 31.3
HCC1599 [9] | – | 98.4 | – | – | 74.7 | 73.1
HCC1937 | – | 99.8 | – | – | 41.7 | 41
HDQ-P1 | 89.9 | – | 90.7 | 72.4 | – | –
Hs578T | – | 95.4 | – | – | 59.3 | 23.9
MDA-MB-231 | – | 87.9 | – | – | 56.7 | 19.2
MDA-MB-436 [10] | – | 89.7 | – | – | 72 | 60.9
MDA-MB-453 | 101 | – | 62.1 | 47.9 | – | –
MDA-MB-468 | – | 107 | – | – | 36.2 | 48.1
MFM-223 [11] | – | 71.3 | – | – | 36.9 | 55.4
SK-BR-3 | – | 81 | – | – | 73.5 | 77

Cc1nc(Nc2ncc(C(=O)Nc3c(C)cccc3Cl)s2)cc(N2CCN(CCO)CC2)n1 [Dasatinib]
Conditions | EC50, CellTiter-Blue viability [nM]
BT-549 [1] | 58.5
CAL-120 [2] | 56.3
HCC1143 [3] | 34.5
MDA-MB-436 [5] | 78.5
MFM-223 [12] | 427

Conditions | normalised viability
BT-474, 1 nM | 126% and 102%
BT-474, 100 nM | 113% and 96.2%
BT-474, 1000 nM | 97.9% and 95.4%
BT-549 [6], 1 nM | 102% and 95.4%
BT-549 [6], 100 nM | 62.5% and 51.1%
BT-549 [6], 1000 nM | 38.9% and 35.7%
CAL-51, 0.3 nM | 106% and 112%
CAL-51, 3 nM | 92.3% and 93.9%
CAL-51, 10 nM | 79.3% and 84.4%
CAL-85-1, 0.3 nM | 97.8% and 95.5%
CAL-85-1, 3 nM | 84.2% and 87.7%
CAL-85-1, 10 nM | 87.9% and 92.9%
CAL-120 [7], 1 nM | 93.5% and 85.7%
CAL-120 [7], 100 nM | 46% and 38.3%
CAL-120 [7], 1000 nM | 26.6% and 22.4%
CAL-148, 0.3 nM | 97.9% and 80.8%
CAL-148, 3 nM | 110% and 85.8%
CAL-148, 10 nM | 98.1% and 88.5%
DU-4475, 0.3 nM | 107% and 83.4%
DU-4475, 3 nM | 101% and 97.1%
DU-4475, 10 nM | 101% and 95.7%
HCC1143 [8], 1 nM | 100% and 78.6%
HCC1143 [8], 100 nM | 65.4% and 55%
HCC1143 [8], 1000 nM | 48.9% and 37.6%
HCC1599 [9], 1 nM | 109% and 107%
HCC1599 [9], 100 nM | 103% and 114%
HCC1599 [9], 1000 nM | 101% and 100%
HCC1937, 1 nM | 95.7% and 92.3%
HCC1937, 100 nM | 53.9% and 78%
HDQ-P1, 0.3 nM | 106% and 111%
HDQ-P1, 3 nM | 83.8% and 84.8%
Hs578T, 1 nM | 108% and 102%
Hs578T, 100 nM | 55.5% and 45.7%
Hs578T, 1000 nM | 27% and 24.8%
MDA-MB-231, 1 nM | 87.5% and 81.5%
MDA-MB-231, 100 nM | 53% and 40.2%
MDA-MB-231, 1000 nM | 40.5% and 34%
MDA-MB-436 [10], 1 nM | 91.2% and 105%
MDA-MB-436 [10], 100 nM | 64.8% and 56.8%
MDA-MB-436 [10], 1000 nM | 40.4% and 30.4%
MDA-MB-453, 0.3 nM | 121% and 115%
MDA-MB-453, 3 nM | 96.6% and 99.2%
MDA-MB-453, 10 nM | 97.7% and 104%
MDA-MB-468, 1 nM | 114% and 109%
MDA-MB-468, 100 nM | 105% and 100%
MDA-MB-468, 1000 nM | 94.6% and 90.4%
MFM-223 [11], 1 nM | 96.2% and 96.8%
MFM-223 [11], 100 nM | 84.3% and 90.4%
MFM-223 [11], 1000 nM | 70.1% and 72%
SK-BR-3, 1 nM | 109% and 92.9%
SK-BR-3, 100 nM | 112% and 98.6%
